Read-outs that look alike come from different tables or passages of the source.
Columns and labels:
HSV-1 (F strain) [1] = test system: HSV-1 (F strain)
HSV-2 = conditions: for Percent Reduction of lesions / # of lesions: TEAC ointment from 12-16 hours p.i.
Protocol: Female guinea pigs (obtained from Charles River, Inc.) weighing approximately 200 g were used as a model for HSV-2 skin lesions. The animals were anesthetized with 0.15 ml of Ketamine-Rompum mixture. The animals were first shaved on their back with a hair clipper and then treated with a depilatory cream (Nair). The denuded area was washed well and then dried. A tuberculin tyne was washed with ethanol and air dried.
Two methods were tried for infecting the animals with the virus. In one, a drop of HSV-2 suspension was placed on the skin and the skin was punctured with the tyne. In the second method, the tyne was dipped in the virus suspension before puncturing the skin.
In the first experiment, each of 3 guinea pigs was infected on three areas of their backs. At 3 days post infection, treatment was begun on one side of each animal, leaving the other side untreated as a control.
The animals were examined daily for vesicles (V), crust (C) and for erythema (R) alone.
In the next experiment 6 guinea pigs were infected in the same manner as the initial 3 guinea pigs. Treatment was begun 12-16 hours post infection. […] Lesions showing an erythematous base with either a blister or a crust on top were considered to HSV specific. […] Both the control animals and treated animals were carefully read in the same manner.

[2] = test system: RK-13, Vero and WISH cells
HSV-1 (McKrae strain) = conditions: 20 mg/ml
[3] = test system: HSV types 1 and 2 (herpes simplex)
HSV-1 (F strain) [4] = test system: HSV-1 (F strain); remark: listed apart in the source
Protocol: In Series No. 1 of Example No. 1, monolayer cultures of Vero, RK-13 (rabbit kidney), and WISH (human amnion, Hayflick) cells were used in the experiments of Example No. 1. The cells were grown in Basal Minimal Eagle's Media supplemented with 5% fetal calf serum, 1% glutamine, sodium bicarbonate and antibiotics. Cultures were maintained in a maintenance media that was the same media, except that the maintenance media contained 2% fetal calf serum. An F Strain of HSV-1 was chosen because it is a well-known prototype of HSV-1. This F Strain can be obtained from the American Type Culture Collection (ATCC), 12301 Parklawn Drive, Rockville, Md. 20852, at which it is identified as ATC-VR 733. For studies with HSV-2, a G strain of HSV-2 (ATCC-VR 734) and a 333 strain of HSV-2 were selected. These strains also can be obtained from the ATCC.
Two methods were used to test the drug's effectiveness in the suppression of viral growth. In the pre-inoculation experiments, the drug was added after adsorption of the virus. In the pre-incubation experiments, the drug was added prior to infection of the cell cultures.
Accordingly, the pre-inoculation experiments measured the effect of the drug on a cell that was already infected with the virus. The pre-incubation experiments measured the cell cultures that were treated with the drug prior to the inoculation to determine if these cells then would be permissive or non-permissive to the tested virus. In these experiments, plaque reduction assays provided a quantitative measure of antiviral activity and was deemed to be reliable and objective.
In the pre-incubation experiments, the media was either decanted or gently aspirated from the cultures. After decanting or aspirating, 1 ml of the drug dilution plus maintenance media was added to the cultures. The cultures that served as virus controls or cell controls received 2 ml of maintenance media. After the pre-treatment period, the media was again aspirated and the cell cultures were infected with the virus.
When this occurred, the cultures were fixed and stained with crystal violet. The plaque were then carefully counted under the microscope. By such a counting and careful comparison, percentages of plaque inhibition in the treated cultures were then calculated.
These duplicate wells were incubated for 3 hours. After this time, the maintenance media was aspirated and the cultures were infected. Fresh maintenance media was then added.

[5] = Patient B, fourth treatment 4.8 cc
[6] = Patient B, third treatment 4.5 cc
[7] = Patient I, three months after second infusion
[8] = Exp. 1E, 4 hours pre-incubation, 100 mg/culture
[9] = Exp. 1E, 7 hours pre-incubation, 100 mg/culture

For `CC[N+](CC)(CC)CC.[Cl-]` [TEAC, tetraethylammonium chloride], the average plaque number (HSV-1 (F strain) [1]; 2.5 mg/ml (1 ml plus 4 ml media), Vero, control 488.5) was 75.5 plaque, the “size of the plaque vs control” value (HSV-1 (F strain) [1]; 2.5 mg/ml, Vero) was “appreciably smaller” and the “suppression of viral growth” value (HSV-1 (F strain) [1]; summary of first series) was “not only by the reduced number of plaque, but also by their reduced size”. For the same compound, the “Percent Reduction of lesions” value (HSV-2; day 3 P.I.) was 21%, the “# of lesions” value (HSV-2; day 3 P.I., control 19) was 15 and the “Percent Reduction of lesions” value (HSV-2; day 4 P.I.) was 27.5%. For the same compound, the “# of lesions” value (HSV-2; day 4 P.I., control 40) was 29, the “Percent Reduction of lesions” value (HSV-2; day 5 P.I.) was 58.5% and the “# of lesions” value (HSV-2; day 5 P.I., control 41) was 17. For the same compound, the “Percent Reduction of lesions” value (HSV-2; day 6 P.I.) was 58.3%, the “# of lesions” value (HSV-2; day 6 P.I., control 36) was 15 and the lesion appearance (HSV-2; first experiment, 4 times daily from 3 days p.i.) was “did not crust but appeared to be faded by 6 days post infection”. For the same compound, the dermatitis (HSV-2; first experiment, day 4 after treatment, probably due to TEAC or its vehicle or both) was “a rash appeared”, the “number and size of lesions” value (HSV-2; given 12-16 hours p.i.) was “significant reduction in the number of lesions, but also in their size” and the “rupture and crusting of lesions” value (HSV-2; given 12-16 hours p.i.) was “neither ruptured nor crusted”. The vesicle formation (HSV-2; given 12-16 hours p.i.) was “less vesicles formed”, the vesicles (HSV-2; given 3 days p.i.) was “reduced in elevation and eventually resolved” and the “number and appearance of lesions vs control” value (HSV-2; treatment from 12-16 hours p.i.) was “marked difference between the two groups”. For the same compound, the “reversibility of toxicity (thin) / morphology changes” value ([2]; drug removed, fresh media added) was “totally reversible”, the “change in morphology or cytopathic effect” value ([2]; one to seven hours exposure) was “No change in morphology or cytopathic effect” and the “rate of growth vs cultures without TEAC” value ([2]; one to seven hours exposure) was “no difference in the rate of growth”. The toxicity to cells ([2]; one to seven hours exposure) was “not toxic to cells”, the virus yield (HSV-1 (McKrae strain); cell, 6 hours P.I., 10^-1) was 2 PFU/ml and the virus yield (HSV-1 (McKrae strain); cell, 6 hours P.I., 10^-2) was 5 PFU/ml. It also gave a virus yield (HSV-1 (McKrae strain); cell, 6 hours P.I., Und.) of 12 PFU/ml, a virus yield (HSV-1 (McKrae strain); cell, 10 hours P.I., 10^-1) of 3 PFU/ml and a virus yield (HSV-1 (McKrae strain); cell, 10 hours P.I., 10^-2) of 0 PFU/ml. For the same compound, the virus yield (HSV-1 (McKrae strain); cell, 10 hours P.I., Und.) was 13 PFU/ml, the virus yield (HSV-1 (McKrae strain); cell, 20 hours P.I., 10^-1) was 5 PFU/ml and the virus yield (HSV-1 (McKrae strain); cell, 20 hours P.I., 10^-2) was 0 PFU/ml. For the same compound, the virus yield (HSV-1 (McKrae strain); cell, 20 hours P.I., Und.) was 42 PFU/ml, the virus yield (HSV-1 (McKrae strain); cell, 24 hours P.I., 10^-1) was 32 PFU/ml and the virus yield (HSV-1 (McKrae strain); cell, 24 hours P.I., 10^-2) was 10 PFU/ml. For the same compound, the virus yield (HSV-1 (McKrae strain); cell, 24 hours P.I., Und.) was 58 PFU/ml, the virus yield (HSV-1 (McKrae strain); cell, 28 hours P.I., 10^-1) was “TMTC” and the virus yield (HSV-1 (McKrae strain); cell, 28 hours P.I., 10^-2) was 15 PFU/ml. The virus yield (HSV-1 (McKrae strain); cell, 28 hours P.I., Und.) was “W.O”, the virus yield (HSV-1 (McKrae strain); supernatant, 6 hours P.I., 10^-1) was 0 PFU/ml and the virus yield (HSV-1 (McKrae strain); supernatant, 6 hours P.I., 10^-2) was 0 PFU/ml. For the same compound, the virus yield (HSV-1 (McKrae strain); supernatant, 6 hours P.I., 10^-3) was 0 PFU/ml, the virus yield (HSV-1 (McKrae strain); supernatant, 10 hours P.I., 10^-1) was 0 PFU/ml and the virus yield (HSV-1 (McKrae strain); supernatant, 10 hours P.I., 10^-2) was 0 PFU/ml. It also gave a virus yield (HSV-1 (McKrae strain); supernatant, 10 hours P.I., 10^-3) of 0 PFU/ml, a virus yield (HSV-1 (McKrae strain); supernatant, 20 hours P.I., 10^-1) of 0 PFU/ml and a virus yield (HSV-1 (McKrae strain); supernatant, 20 hours P.I., 10^-2) of 0 PFU/ml. It also gave a virus yield (HSV-1 (McKrae strain); supernatant, 20 hours P.I., 10^-3) of 0 PFU/ml, a virus yield (HSV-1 (McKrae strain); supernatant, 24 hours P.I., 10^-1) of 0 PFU/ml and a virus yield (HSV-1 (McKrae strain); supernatant, 24 hours P.I., 10^-2) of 0 PFU/ml. For the same compound, the virus yield (HSV-1 (McKrae strain); supernatant, 24 hours P.I., 10^-3) was 0 PFU/ml, the virus yield (HSV-1 (McKrae strain); supernatant, 28 hours P.I., 10^-1) was 0 PFU/ml and the virus yield (HSV-1 (McKrae strain); supernatant, 28 hours P.I., 10^-2) was 0 PFU/ml. For the same compound, the virus yield (HSV-1 (McKrae strain); supernatant, 28 hours P.I., 10^-3) was 0 PFU/ml, the oral lesion resolution ([3]; Patient B, 3 days after first infusion) was “resolution occurring in a shorter than usual time” and the severity of attack ([3]; Patient B, about a month after second treatment) was “the attack was never serious and that no lesion appeared”. For the same compound, the attacks ([3]; Patient B, about a month later) was “no more attacks”, the aura and lesion ([3]; Patient B, day after second 3.7 cc) was “absence of an aura and no occurrence of the expected lesion except for a very small lesion” and the “duration of penile lesions” value [3, 5] was 8 days. The value of treatment [3, 5] was “the last treatment appeared of no value”, the recurrences [3, 6] was “recurrences were not eliminated” and the “time to disappearance of penile lesion” value [3, 6] was 2 to 3 days. For the same compound, the fever blisters ([3]; Patient C) was “cleared right away”, the labial lesions ([3]; Patient C) was “two attacks of labial lesions cleared rapidly” and the forehead lesion ([3]; Patient C, about a month later) was “crusted relatively quickly”. For the same compound, the further problems ([3]; Patient C, five and ten months after initial treatment) was “no further problems”, the lesions ([3]; Patient C, next day, 3.85 cc (5 mg/kg)) was “markedly improved” and the infection ([3]; Patient I, first infusion 4.7 cc) was “all clear”. For the same compound, the further lesions [3, 7] was “no further lesions until one developed in the preceding week”, the nocturnal headaches [3, 7] was “no further nocturnal headaches” and the “% plaque inhibition” value (HSV-1 (F strain) [4]; Exp. 1D, 3 hours before infection, 12.5 mg/culture) was 80%. For the same compound, the “% plaque inhibition” value (HSV-1 (F strain) [4]; Exp. 1D, 3 hours before infection, 25.0 mg/culture) was 79%, the “% plaque inhibition” value (HSV-1 (F strain) [4]; Exp. 1D, 3 hours before infection, 50.0 mg/culture) was 82% and the “% plaque inhibition” value (HSV-1 (F strain) [4]; Exp. 1D, 3 hours before infection, 100.0 mg/culture) was 79%. The “% plaque inhibition” value (HSV-1 (F strain) [4]; Exp. 1E, 2 hours pre-incubation, 12.5 mg/culture) was 18%, the “% plaque inhibition” value (HSV-1 (F strain) [4]; Exp. 1E, 2 hours pre-incubation, 25 mg/culture) was 17% and the “% plaque inhibition” value (HSV-1 (F strain) [4]; Exp. 1E, 2 hours pre-incubation, 50 mg/culture) was 24%. The “% plaque inhibition” value (HSV-1 (F strain) [4]; Exp. 1E, 2 hours pre-incubation, 100 mg/culture) was 68%, the “% plaque inhibition” value (HSV-1 (F strain) [4]; Exp. 1E, 4 hours pre-incubation, 12.5 mg/culture) was “less than 20%” and the “% plaque inhibition” value (HSV-1 (F strain) [4]; Exp. 1E, 4 hours pre-incubation, 50 mg/culture) was 63%. For the same compound, the “% plaque inhibition” value (HSV-1 (F strain) [4]; [8]) was 100%, the “cell layer appearance (thin)” value (HSV-1 (F strain) [4]; [8]) was “thin” and the “% plaque inhibition” value (HSV-1 (F strain) [4]; Exp. 1E, 7 hours pre-incubation, 12.5 mg/culture) was 76%. For the same compound, the “% plaque inhibition” value (HSV-1 (F strain) [4]; [9]) was 100%, the “cell layer appearance (thin)” value (HSV-1 (F strain) [4]; [9]) was “thin” and the “permissiveness of cells to virus” value (HSV-1 (F strain) [4]; added before viral inoculation, summary) was “rendered the cells non-permissive to the virus and no plaque formed”.

— US5686448A (priority 1995, dated 1997)
